Series [1] deals with T1, human Androgen Receptor (AR) (Homo sapiens, UniProt P10275).
T1 construct: transiently transfected in T225 cm^2 flasks with a full length human Androgen Receptor (AR) cDNA; expressed in transfected cells; host or cells: CV-1 cells (ATCC CCL-70), transiently transfected
T1 sequence (P10275 1-920): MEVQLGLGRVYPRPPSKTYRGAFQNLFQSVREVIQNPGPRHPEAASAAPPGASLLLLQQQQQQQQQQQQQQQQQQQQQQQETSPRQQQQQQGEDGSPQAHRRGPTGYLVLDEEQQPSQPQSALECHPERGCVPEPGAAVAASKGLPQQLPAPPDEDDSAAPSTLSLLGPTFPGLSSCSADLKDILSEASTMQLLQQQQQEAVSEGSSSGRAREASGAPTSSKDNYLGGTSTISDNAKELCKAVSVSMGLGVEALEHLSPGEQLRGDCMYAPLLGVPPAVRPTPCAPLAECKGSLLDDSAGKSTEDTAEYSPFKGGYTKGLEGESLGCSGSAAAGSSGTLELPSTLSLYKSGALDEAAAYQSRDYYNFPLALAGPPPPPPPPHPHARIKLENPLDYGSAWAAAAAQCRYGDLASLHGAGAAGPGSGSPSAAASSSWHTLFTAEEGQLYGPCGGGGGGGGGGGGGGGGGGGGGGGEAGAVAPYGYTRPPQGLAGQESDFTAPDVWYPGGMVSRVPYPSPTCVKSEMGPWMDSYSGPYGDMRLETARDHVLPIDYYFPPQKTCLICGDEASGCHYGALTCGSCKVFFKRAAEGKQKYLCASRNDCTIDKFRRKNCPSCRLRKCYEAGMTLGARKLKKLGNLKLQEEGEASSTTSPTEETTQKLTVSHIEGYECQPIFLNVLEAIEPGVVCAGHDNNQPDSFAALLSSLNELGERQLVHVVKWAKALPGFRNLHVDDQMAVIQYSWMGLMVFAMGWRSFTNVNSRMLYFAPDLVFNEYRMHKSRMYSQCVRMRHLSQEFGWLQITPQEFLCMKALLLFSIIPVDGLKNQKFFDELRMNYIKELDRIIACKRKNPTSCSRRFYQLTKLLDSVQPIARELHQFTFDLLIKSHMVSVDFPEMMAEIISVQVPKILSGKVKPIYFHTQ
As to the kind of experiment: Androgen Receptor-Mediated Transcriptional Assay. It counts as cell-based. Conditions: CV-1 cells transiently transfected with full length human AR and ARE-luciferase, 16-18 hours incubation. As to the method: Androgen Receptor-Mediated Transcriptional Assay Summary
CV-1 cells (American Tissue Culture Collection cat# CCL-70) were expanded in Growth Media and transiently transfected in T225 cm^2 flasks with a full length human Androgen Receptor (AR) cDNA in the pcDNA3 expression vector and a human Androgen Response Element (ARE)-luciferase cDNA in the pGL3 vector (both from Invitrogen). DNA (μg) and Lipofectamine (μl) at a ratio of 1:3 were incubated with the cells in a total volume of 55 mL Basal Media for 4 hours. Cells were harvested by trypsinization and frozen back (−150° C. cryomed) at a concentration of 4.3 million cells/mL.
On the day of the assay, frozen cells were thawed and re-suspended in Re-suspension Media and plated at 40,000 cells/well (in 100 μL volume) in 96 well white plates and were incubated for at least 4 h at 37° C., 5% CO2. After incubation, cells were treated with the compounds to be screened. 10 mM stocks of the compounds were serially diluted 1:10 in 100% DMSO followed by an additional 1:100 dilution in Assay Media. These dilution series were added to the cell plates resulting in a further 1:10 dilution and a final % DMSO of 0.1%. The vehicle control wells also contained this dilution of DMSO and the positive control wells contained […] (DHT) as an AR agonist at final concentration of 0.3 nM in 0.1% DMSO. Cells were incubated for 16-18 hours at 37° C. and 5% CO2. Then the culture media was removed from and the cells were lysed in 20 μL of cell lysis reagent for 5 minutes at room temperature. 50 μL of luciferase reagent was added to each well and luminescence, over 5 seconds, was measured.
EC50 (half maximal effective concentration) was calculated from concentration series plots which generated sigmoidal curves. Xlfit software was used to plot the best fit of the % effect vs concentration and to calculate the EC50.

Series [2] can be described thus: DSC profile of the crystalline form. Type of series: physicochemical. Particulars: demonstrated by the high DSC melting point and DSC profile. As to the method:
DSC measurements were performed with a Discovery DSC (TA instruments) equipped with a refrigerated cooling accessory. Approximately 2-5 mg of solid sample was weighed into a standard/Tzero aluminum pan and non-hermetically sealed. The sample was placed in a cell with continuous dry nitrogen purge (50 mL/min) and heated from 25° C. to 250° C. at 10° C./min heating rate. The cell constant was determined using indium and temperature calibration was performed using indium and tin as standards. The experimental data were analyzed using commercially available software (TA Universal Analysis 2000/Trios software, TA Instruments).
The characterization data disclosed herein confirms the crystalline nature of the 6-[(4R)-4-methyl-1,1-dioxido-1,2,6-thiadiazinan-2-yl]isoquinoline-1-carbonitrile free base Form (1) material and, as such, that it is a useful form for pharmaceutical development. For example, crystalline materials are generally considered to be an advantageous form for drug substance manufacturing because, for example, they are more easily purified, can be prepared with higher yields, have improved filtration and drying characteristics and improved flow and handling characteristics.

One may read the EC50 as the concentration that produces a half-maximal response. A lower EC50 goes with higher potency in that assay.

Turning to `C[C@H]1CN(C)S(=O)(=O)N1c1ccc2c(C#N)nccc2c1` [Compound 5], the EC50 in series [1] (Compounds 1-22) is 5 nM.
“6-{(2R,5R)-2-[(1R)-1-hydroxyethyl]-5-methylpyrrolidin-1-yl}isoquinoline-1-carbonitrile [Compound 31]” came in with a 50% effective concentration (EC50) in series [1] (Compounds 23-39) of 474 nM.
Consider “6-[(4S)-4-ethyl-1,1-dioxido-1,2,6-thiadiazinan-2-yl]isoquinoline-1-carbonitrile [Compound 21]”, for which, in series [1] (Compounds 1-22), the concentration giving a half-maximal response (EC50) stood at 8 nM.
On to `C[C@@H]1CNS(=O)(=O)N(c2ccc3c(C#N)nccc3c2)C1` [6-[(4R)-4-methyl-1,1-dioxido-1,2,6-thiadiazinan-2-yl]isoquinoline-1-carbonitrile], for which, in series [2], the hygroscopic nature entry is given as “non-hygroscopic” and the thermal stability result is reported as “thermal stability”.
In series [1] (Compounds 1-22), “6-[(4S)-4-(3-methylphenyl)-1,1-dioxido-1,2,6-thiadiazinan-2-yl]isoquinoline-1-carbonitrile [Compound 20]” yielded an EC50 of 8 nM.

For the origin of these results see patent US10328082B2, “Methods of use and combinations” (Pfizer Inc., priority 2014, dated 2019).
